pEC50: −log10 of the molar value.
Key:
[1] = tested on: MCA-A24/Kb-WT1 tumor cells; experiment: Test 5: enhancement of in vivo suppressive effect of vaccine on tumor growth; parameters: species or system mouse; settings: 27 days after tumor transplantation; vaccine 7 days before and 7 days after transplantation; compared with vehicle (group a); six mice per group; 100 ng Example 1 per body in group c; FIG. 2
Experimental: Effect for Enhancing the In Vivo Suppressive Effect of Vaccine for Growth of Tumor Vaccine
A suspension of 3-methylcholanthrene in corn oil was administered to a HLA-A*24:02 transgenic mouse intradermally at the ventral region. From the tumor generated at the administration site, HLA-A*2402/Kb-expressing tumor cells were obtained. Cell lines established by stably expressing WT1 antigen peptide (SEQ ID No. 2) in the cells (herein, also referred to as MCA-A24/Kb-WT1 tumor cells) were suspended in Hanks' Balanced Salt Solution and intradermally transplanted to the ventral region of HLA-A*24:02 transgenic mouse (5×10^5 cells per mouse). The mice made to receive a vehicle (Group a), a vaccine (Group b), or a vaccine containing the compound prepared in Example 1 (Group c) were classified. Six mice per group were used. Seven days before the tumor transplantation and seven days after the tumor transplantation, for the mice of Group a, a composition comprising water for injection was emulsified with an equal volume of Montanide ISA 51 VG and the emulsion was administered intradermally at the tail base area (0.1 mL per administration per mouse). […] The tumor diameter was measured 27 days after the tumor transplantation and the tumor volume was calculated.

[2] = molecular target: T1, human TLR7 (Homo sapiens, UniProt Q9NYK1); experiment: Human TLR7 reporter gene assay (TLR7/NF-κB/SEAPorter HEK293 cell line), Tests 1 and 21; assay type: cell-based; settings: Test 1; TLR7/NF-κB/SEAPorter HEK293 cell line; half of maximal SEAP induction; 24-hour incubation, 0.1% DMSO; read-out: EC50
T1 construct: expresses full-length human TLR7 and secretory alkaline phosphatase (SEAP) reporter gene; host or cells: HEK293 (TLR7/NF-κB/SEAPorter)
T1 sequence (Q9NYK1 27-1049): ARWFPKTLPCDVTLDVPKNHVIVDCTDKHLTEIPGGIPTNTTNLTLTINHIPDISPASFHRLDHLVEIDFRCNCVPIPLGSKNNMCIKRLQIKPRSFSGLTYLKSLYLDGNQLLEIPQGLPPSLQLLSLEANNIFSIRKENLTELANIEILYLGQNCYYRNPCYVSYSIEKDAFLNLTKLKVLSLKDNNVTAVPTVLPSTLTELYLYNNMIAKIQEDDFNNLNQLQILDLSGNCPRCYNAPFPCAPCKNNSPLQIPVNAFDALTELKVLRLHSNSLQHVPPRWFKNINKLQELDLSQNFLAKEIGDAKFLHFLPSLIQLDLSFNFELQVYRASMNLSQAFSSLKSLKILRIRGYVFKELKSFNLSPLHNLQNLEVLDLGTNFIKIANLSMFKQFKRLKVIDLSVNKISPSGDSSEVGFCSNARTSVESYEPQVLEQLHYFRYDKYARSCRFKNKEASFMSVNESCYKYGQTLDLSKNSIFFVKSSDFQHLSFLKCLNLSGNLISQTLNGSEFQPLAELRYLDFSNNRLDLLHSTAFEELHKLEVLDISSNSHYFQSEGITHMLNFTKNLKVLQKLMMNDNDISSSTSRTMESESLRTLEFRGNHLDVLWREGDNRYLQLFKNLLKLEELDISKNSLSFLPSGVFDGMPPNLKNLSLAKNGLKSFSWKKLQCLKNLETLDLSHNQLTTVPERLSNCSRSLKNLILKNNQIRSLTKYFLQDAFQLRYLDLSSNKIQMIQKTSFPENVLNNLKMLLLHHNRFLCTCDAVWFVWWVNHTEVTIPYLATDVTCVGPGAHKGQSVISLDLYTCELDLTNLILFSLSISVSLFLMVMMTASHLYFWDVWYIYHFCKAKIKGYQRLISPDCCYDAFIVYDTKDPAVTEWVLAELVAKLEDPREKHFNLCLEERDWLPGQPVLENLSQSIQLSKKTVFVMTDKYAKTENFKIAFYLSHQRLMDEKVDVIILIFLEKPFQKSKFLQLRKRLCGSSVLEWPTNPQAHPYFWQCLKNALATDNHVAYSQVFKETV
Excerpt: Human TLR7 Reporter Gene Assay
TLR7/NF-κB/SEAPorter™ HEK293 cell line (Imgenex Corporation) is a stably co-transfected cell line which expresses full-length human TLR7 and secretory alkaline phosphatase (SEAP) reporter gene under the transcriptional regulation of an NF-κB response element. The TLR7 expression of the cell line has been already tested by flow cytometry. Transfectants with stable expression were selected using the antibiotic blasticidin and Geneticin. TLR signaling leads to the translocation of NF-κB and the activation of the promoter results in expression of the SEAP gene. TLR7-specific activation was assessed by determining the level of SEAP produced following 24-hour incubation of the cells at 37° C. with each compound prepared in Examples and Reference examples in the presence of 0.1% (v/v) dimethylsulfoxide (DMSO). The human TLR7 activity for the present compound was assessed by human TLR7 reporter gene assay, and the results are shown in Tables 3 and 4 as the compound concentration which produced half of the maximal level of SEAP induction (EC50)
According to the method of Test 1, human TLR7 reporter gene assay was done with the following samples, and the result was shown in the table below.

pEC50 [2]	SMILES	growth of tumor cells (average tumor volume) [1]
7.17	CCCCCNc1nc(N)nc(C)c1Cc1ccc(CN(C)CCOCCOCCOCCOCCO)cc1OC [Example 1, 1-(4-{[2-amino-4-methyl-6-(pentylamino)pyrimidin-5-yl]methyl}-3-methoxyphenyl)-2-methyl-5,8,11,14-tetraoxa-2-azahexadecan-16-ol·trifluoroacetate]	more potently suppressed the growth of tumor cells
7.30	CCCCCNc1nc(N)nc(C)c1Cc1ccc(CNC)cc1OC [Reference example 12, 5-({2-methoxy-4-[(methylamino)methyl]phenyl}methyl)-6-methyl-N^4-pentylpyrimidine-2,4-diamine, reference compound]	

Reference: patent publication US12427192B2, “Water soluble adjuvant and composition containing same” (Sumitomo Pharma Co., Ltd., priority 2019, dated 2025)
